# Patent EP4104902B1, “COMPOUNDS AND M[…] SAME” (priority 2020, dated 2021)
# Like-named read-outs stand apart in the source and are kept apart here.
# Tested on: recombinant rabies virus 1088 strain expressing Gaussia Luciferase (GLuc) (1088/GLuc)
# Type: cell-based
SMILES,IC50 (read-out: Anti-rabies activity) [µM],IC50 (read-out: IC50) [µM]
CC(C)CN1C[C@@H]2C[C@H]3CN[C@]2(C(=O)NCc2ccccc2)[C@@H]1[C@@H]3Cc1ccc(O)cc1 (relative stereo) [IB-783],10 to 30,
CC(C)CC[C@@H]1[C@@H]2CN[C@@]3(C(=O)NCc4ccccc4)[C@@H](C2)CN(Cc2ccc(O)cc2)[C@@H]13 (relative stereo) [IB-786],10 to 30,
CC(C)C[C@@H]1[C@@H]2CN[C@@]3(C(=O)NCc4ccccc4)[C@@H](C2)CN(Cc2ccc(O)cc2)[C@@H]13 (relative stereo) [IB-787],10 to 30,
"CC(C)CN1C[C@H]2C[C@]3(C(=O)NCc4ccccc4)NC[C@H]2[C@H]1[C@H]3Cc1ccccc1 (relative stereo) [IF-1, (3S*, 3aS*, 6S*, 7R*, 7aS*) -N, 7-dibenzyl-1-isobutyloctahydro-6H-3,6-methanopyrrolo[3,2-c]pyridine-6-carboxamide]",10 to 30,12.6
CC(C)CNC(=O)[C@@]12C[C@@H]3CN(Cc4ccccc4)[C@@H]([C@@H]3CN1)[C@H]2Cc1ccccc1 (relative stereo) [IF-6],10 to 30,16.3
CC(C)CN1C[C@H]2C[C@]3(C(=O)NCc4ccccc4)NC[C@H]2[C@H]1[C@H]3CCc1ccccc1 (relative stereo) [IF-11],10 to 30,17.5
Cc1cccc(C[C@@H]2[C@@H]3[C@@H]4CN[C@@]2(C(=O)NCc2ccccc2)C[C@@H]4CN3CC(C)C)c1 (relative stereo) [IF-13],10 to 30,13.1
Cc1ccc(C[C@@H]2[C@@H]3[C@@H]4CN[C@@]2(C(=O)NCc2ccccc2)C[C@@H]4CN3CC(C)C)cc1 (relative stereo) [IF-14],10 to 30,14.1
Cc1cccc(CNC(=O)[C@@]23C[C@@H]4CN(CC(C)C)[C@@H]([C@@H]4CN2)[C@H]3Cc2ccccc2)c1 (relative stereo) [IF-15],10 to 30,17.1
CC(C)C[C@@H]1[C@@H]2[C@@H]3CN[C@@]1(C(=O)NCc1ccc(Cl)c(Cl)c1)C[C@@H]3CN2Cc1ccccc1 (relative stereo) [IF-20],10 to 30,11.6
CC(C)CN1C[C@H]2C[C@]3(C(=O)NCc4ccccc4)NC[C@H]2[C@H]1[C@H]3CC1CCCCC1 (relative stereo) [IF-38],10 to 30,
O=C(NCc1ccccc1)[C@@]12C[C@@H]3CN(Cc4cccc5ccccc45)[C@@H]([C@@H]3CN1)[C@H]2Cc1ccccc1 (relative stereo) [IF-42],10 to 30,
CCN1C[C@@H]2[C@H]3CN(CC(C)C)[C@@H]2[C@@H](Cc2ccccc2)[C@]1(C(=O)NCc1ccccc1)C3 (relative stereo) [IF-69],10 to 30,16.5
CC(C)C[C@@H]1[C@@H]2[C@@H]3CN[C@@]1(C(=O)NCc1cccc4ccccc14)C[C@@H]3CN2CC(N)=O (relative stereo) [IF-81],10 to 30,
NC(=O)CN1C[C@H]2C[C@]3(C(=O)NCc4cccc5ccccc45)NC[C@H]2[C@H]1[C@H]3Cc1ccccc1 (relative stereo) [IF-82],10 to 30,
CC(C)CC[C@@H]1[C@@H]2[C@@H]3CN[C@@]1(C(=O)NCc1cccc4ccccc14)C[C@@H]3CN2CC(N)=O (relative stereo) [IF-84],10 to 30,
NC(=O)CN1C[C@H]2C[C@]3(C(=O)NCc4cccc5ccccc45)NC[C@H]2[C@H]1[C@H]3CCc1ccccc1 (relative stereo) [IF-85],10 to 30,
CC(C)CC[C@@H]1[C@@H]2[C@@H]3CN[C@@]1(C(=O)NCc1ccc(F)cc1)C[C@@H]3CN2CC(N)=O (relative stereo) [IF-95],10 to 30,
NC(=O)CN1C[C@H]2C[C@]3(C(=O)NCc4ccc(F)cc4)NC[C@H]2[C@H]1[C@H]3Cc1cccc2ccccc12 (relative stereo) [IF-97],10 to 30,
CCCCCCNC(=O)[C@@]12C[C@@H]3CN(CC(N)=O)[C@@H]([C@@H]3CN1)[C@H]2CCc1ccccc1 (relative stereo) [IF-109],10 to 30,

SMILES,IC50 (read-out: Anti-rabies activity) [µM],IC50 (read-out: IC50) [µM]
CCCCCCNC(=O)[C@@]12C[C@@H]3CN(CC(N)=O)[C@@H]([C@@H]3CN1)[C@H]2Cc1cccc2ccccc12 (relative stereo) [IF-110],< 5,
NC(=O)CN1C[C@H]2C[C@]3(C(=O)NCc4ccc(O)cc4)NC[C@H]2[C@H]1[C@H]3Cc1cccc2ccccc12 (relative stereo) [IF-137],< 5,
CC(C)CNC(=O)[C@@]12C[C@@H]3CN(Cc4cccc5ccccc45)[C@@H]([C@@H]3CN1)[C@H]2CCCNC(=N)N (relative stereo) [IF-235],10 to 30,
N=C(N)NCCC[C@@H]1[C@@H]2[C@@H]3CN[C@@]1(C(=O)NCc1ccccc1)C[C@@H]3CN2Cc1cccc2ccccc12 (relative stereo) [IF-236],10 to 30,
N=C(N)NCCC[C@@H]1[C@@H]2[C@@H]3CN[C@@]1(C(=O)NCCO)C[C@@H]3CN2Cc1cccc2ccccc12 (relative stereo) [IF-239],10 to 30,
CCCCCCNC(=O)[C@@]12C[C@@H]3CN(Cc4cccc5ccccc45)[C@@H]([C@@H]3CN1)[C@H]2CCCNC(=N)N (relative stereo) [IF-243],< 5,
CC(C)NC(=O)[C@@]12C[C@@H]3CN(Cc4cccc5ccccc45)[C@@H]([C@@H]3CN1)[C@H]2CCCNC(=N)N (relative stereo) [IF-244],< 5,
N=C(N)NCCC[C@@H]1[C@@H]2[C@@H]3CN[C@@]1(C(=O)NCc1ccc(F)cc1)C[C@@H]3CN2Cc1cccc2ccccc12 (relative stereo) [IF-245],< 5,
NC(=O)C[C@@H]1[C@@H]2[C@@H]3CN[C@@]1(C(=O)NCc1ccccc1)C[C@@H]3CN2CC1CCCCC1 (relative stereo) [IF-246],10 to 30,
NC(=O)C[C@@H]1[C@@H]2[C@@H]3CN[C@@]1(C(=O)NCc1ccc(O)cc1)C[C@@H]3CN2CC1CCCCC1 (relative stereo) [IF-247],10 to 30,
NC(=O)C[C@@H]1[C@@H]2[C@@H]3CN[C@@]1(C(=O)NCCc1ccccc1)C[C@@H]3CN2CC1CCCCC1 (relative stereo) [IF-251],10 to 30,
CCCCCCNC(=O)[C@@]12C[C@@H]3CN(CC4CCCCC4)[C@@H]([C@@H]3CN1)[C@H]2CCCNC(=N)N (relative stereo) [IF-260],10 to 30,
CC(C)CNC(=O)[C@@]12C[C@@H]3CN(Cc4ccc(F)cc4)[C@@H]([C@@H]3CN1)[C@H]2CC(N)=O (relative stereo) [IF-262],< 5,
NC(=O)C[C@@H]1[C@@H]2[C@@H]3CN[C@@]1(C(=O)NCCc1ccccc1)C[C@@H]3CN2Cc1ccc(F)cc1 (relative stereo) [IF-269],10 to 30,
CC(C)NC(=O)[C@@]12C[C@@H]3CN(Cc4ccc(F)cc4)[C@@H]([C@@H]3CN1)[C@H]2CCCNC(=N)N (relative stereo) [IF-274],10 to 30,
N=C(N)NCCC[C@@H]1[C@@H]2[C@@H]3CN[C@@]1(C(=O)NCc1cccc4ccccc14)C[C@@H]3CN2Cc1ccccc1 (relative stereo) [IF-284],10 to 30,
CCCCCCNC(=O)[C@@]12C[C@@H]3CN(Cc4ccccc4)[C@@H]([C@@H]3CN1)[C@H]2CCCNC(=N)N (relative stereo) [IF-285],10 to 30,
N=C(N)NCCC[C@@H]1[C@@H]2[C@@H]3CN[C@@]1(C(=O)NCc1cccc4ccccc14)C[C@@H]3CN2Cc1ccc(F)cc1 (relative stereo) [IF-297],10 to 30,
CCCCCCNC(=O)[C@@]12C[C@@H]3CN(Cc4ccc(F)cc4)[C@@H]([C@@H]3CN1)[C@H]2CCCNC(=N)N (relative stereo) [IF-298],10 to 30,
